The first experiment concerns U2OS_Bim cells. The experiment can be described thus: Apoptosis inhibition assay (Bim-induced apoptosis, cell viability by ATP level). The experiment is classed as cell-based. The note with it: U2OS_Bim cells; estimated (*Est.) / preliminary results; numbering of Tables 4a/4b; read-out: EC50. The gist of the method:
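Apoptosis was triggered by doxycycline (0.1 μg/mL) induction of Bim, one hour after compound addition to U2OS_Bim cells. Survival was measured after 24 h from cellular ATP (CellTiter-Glo), relative to DMSO, with zVAD at 20 μM as rescue control. Data are duplicate means, some estimated from preliminary results.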
For `Cc1cc(-c2cc(F)c(=O)n(Cc3ccc4c(c3)OCO4)c2)nc(S(=O)(=O)CCC(OCc2ccccc2F)c2ccncc2)n1` (stereo not drawn) [Compound 385], the EC50 is 1 to 1000 nM.

With `Cc1cc(-c2cc(F)c(=O)n(Cc3ccc4c(c3)OCO4)c2)nc(S(=O)(=O)CCC(OCC2CCC2)c2ccccc2)n1` (stereo not drawn) [Compound 415], the EC50 is 1 to 1000 nM.

For the compound `Cc1cc(-c2cc(F)c(=O)n(Cc3ccc4c(c3)CC(=O)N4C)c2)nc(S(=O)(=O)CCC(OCc2ccccc2F)c2ccccc2)n1` (stereo not drawn) [Compound 351], the EC50 is 1 to 1000 nM.

Consider `Cc1cc(-c2cc(F)c(=O)n(Cc3ccc4c(c3)OCO4)c2)nc(S(=O)(=O)CCC(OCc2ccccc2F)c2cncs2)n1` (stereo not drawn) [Compound 390], for which the EC50 was 1 to 1000 nM. `Cc1cc(-c2cc(F)c(=O)n(Cc3ccc4c(c3)OCCN4)c2)nc(S(=O)(=O)CCC(OCc2ccccc2F)c2ccccc2)n1` (stereo not drawn) [Compound 358]: the EC50 is 1 to 1000 nM.

Still in this experiment, the particulars now being: U2OS_Bim cells; estimated based on preliminary results; numbering of Tables 4a/4b; read-out: EC50.
In the case of `COc1ccc(Cn2cc(-c3cc(-c4ncco4)nc(S(C)(=O)=O)n3)ccc2=O)cc1OC` [Compound 211], the EC50 was below 10000 nM. Still for that read-out and setting: the value for `COc1ccc(Cn2cc(-c3cc(-c4nccs4)nc([S+](C)[O-])n3)ccc2=O)cc1OC` (stereo not drawn) [Compound 213] was below 10000 nM. Take `COc1ccc(Cn2cc(-c3cc(C4=CCC=C4)nc(S(C)(=O)=O)n3)ccc2=O)cc1OC` [Compound 208]: the EC50 is below 10000 nM. `C[S+]([O-])c1nc(-c2ccc(=O)n(Cc3ccc4ocnc4c3)c2)cc(C(F)(F)F)n1` (stereo not drawn) [Compound 227]: the half-maximal effective concentration (EC50) is below 10000 nM. The same measure, in the same setting: the value for `C[S+]([O-])c1nc(-c2ccc(=O)n(Cc3ccc4nccnc4c3)c2)cc(C(F)(F)F)n1` (stereo not drawn) [Compound 245] was below 10000 nM.

The experiment is the same for the next values; noted with them: U2OS_Bim cells; means of duplicates; numbering of Tables 4a/4b; read-out: EC50.
Take `COc1cccc(CS(=O)(=O)c2nc(-c3ccc(=O)n(Cc4ccc(OC)c(OC)c4)c3)cc(C(F)F)n2)c1` [Compound 172, 5-(6-(difluoromethyl)-2-((3-methoxybenzyl)sulfonyl)pyrimidin-4-yl)-1-(3,4-dimethoxybenzyl)pyridin-2 (1H)-one]: the EC50 was in the range of 1 to 1000 nM. Take `Cc1cc(-c2cc(F)c(=O)n(Cc3ccc4c(cnn4C)c3)c2)nc(S(=O)(=O)CCC(OCc2ccccc2F)c2ccccc2)n1` (stereo not drawn) [Compound 327, 3-fluoro-5-(2-(3-(2-fluorobenzyloxy)-3-phenylpropylsulfonyl)-6-methylpyrimidin-4-yl)-1-((1-methyl-1H-indazol-5-yl)methyl)pyridin-2 (1H)-one]: the EC50 lay in the range of 1 to 1000 nM.

With `COc1ccc(Cn2cc(-c3cc(CF)nc(S(C)(=O)=O)n3)ccc2=O)cc1OC` [Compound 161, 5-(6-(fluoromethyl)-2-(methylsulfonyl)pyrimidin-4-yl)-1-(3,4-dimethoxybenzyl)pyridin-2 (1H)-one], the EC50 is 1 to 1000 nM. Still for that read-out and setting: the value for `COc1cccc(C[S+]([O-])c2nc(-c3ccc(=O)n(Cc4ccc(OC)c(OC)c4)c3)cc(C(F)F)n2)c1` (stereo not drawn) [Compound 173, 5-(6-(difluoromethyl)-2-((3-methoxybenzyl)sulfinyl)pyrimidin-4-yl)-1-(3,4-dimethoxybenzyl)pyridin-2 (1H)-one] was 1000 to 10000 nM. The same measure, in the same setting: the value for `COc1ccc(Cn2cc(-c3cc(C(F)(F)F)nc(S(=O)(=O)CCCC(N)=O)n3)ccc2=O)cc1OC` [Compound 158, 4-((4-(1-(3,4-dimethoxybenzyl)-6-oxo-1,6-dihydropyridin-3-yl)-6-(trifluoromethyl)pyrimidin-2-yl)sulfonyl)butanamide] was below 100000 nM; that for `CNC(=O)c1ccc(-c2cc(C(F)(F)F)nc(S(C)(=O)=O)n2)cc1` [Compound 68, N-methyl-4-(2-(methylsulfonyl)-6-(trifluoromethyl)pyrimidin-4-yl)benzamide] was 1000 to 20000 nM.

As for `CS(=O)(=O)c1nc(CF)cc(-c2cc(F)c(=O)n(Cc3ccc4c(c3)OCO4)c2)n1` [Compound 334, 1-(benzo[d][1,3]dioxol-5-ylmethyl)-3-fluoro-5-(6-(fluoromethyl)-2-(methylsulfonyl)pyrimidin-4-yl)pyridin-2 (1H)-one], the EC50 lay in the range of 1000 to 10000 nM. Still for that read-out and setting: the same measure for `CS(=O)(=O)c1nc(-c2cccc(F)c2)cc(C(F)(F)F)n1` [Compound 44, 4-(3-fluorophenyl)-2-(methylsulfonyl)-6-(trifluoromethyl)pyrimidine]: 1000 to 10000 nM.
